In this test the test system is isolated rodent islets. The test can be described thus: Glucagon secretion by isolated rodent islets in culture at varying glucose concentrations, 1 hr PAM treatment, glucagon by ELISA. The class given is cell-based. Here is the method: In an in vitro approach, isolated rodent islets maintained in culture in 96-well plates are treated for 1 hr with PAMs. Simultaneous with addition of PAMs, islets are exposed by media exchange to glucose concentrations ranging from hypoglycemic to hyperglycemic: e.g., 2 mM, 6 mM, 12 mM, 18 mM, etc. At the end of a 1 hour PAM treatment in varying glucose concentrations, glucagon levels in each treatment condition are then measured by ELISA.
Background: In an ELISA, binding on a coated surface is turned into a signal by an enzyme label.

Setting [1] is: euglycemic and hyperglycemic conditions.

On to `CC(CNS(=O)(=O)C(C)C)c1ccc(-c2ccc(C#N)cc2)cc1` (stereo not drawn) [LY404187], for which the “amount of glucagon released into a culture media by isolated islets” value runs as follows: under setting [1], “not”; (hypoglycemic conditions) “dose-dependently upregulate”.
On the same counts, the results for `O=C1c2cccnc2OC[C@@H]2CCCN12` [ORG26576] are “not” and “dose-dependently upregulate”.
On the same counts, the results for `COc1ccc(C(=O)N2CCCC2=O)cc1` [aniracetam] are “not” and “dose-dependently upregulate”.
